Results published in the supplement of paper PMC10627819.

Columns and labels:
[1] = system: B. subtilis 168; assay: Bliss interaction score (quartile over a dose matrix) (fitness difference); higher = more antagonism (negative = synergy)
Method in brief: (§1)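 The Bliss score was calculated by subtracting the expected fitness, the product of single-drug values, from the observed fitness. OD595 at entry into stationary phase, over the plate's robust no-drug mean and capped at 1, served as the fitness readout. Single-drug values were inferred from combination data, and scores are summarised by quartiles across technical, biological and donor/recipient replicates.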

[2] = system: S. aureus DSM 20231; assay: as above
Method in brief: as §1

[3] = system: S. aureus Newman; assay: as above
Method in brief: as §1

[4] = system: S. pneumoniae D39V; assay: as above
Method in brief: as §1

[5] = system: B. subtilis 168; assay: fitness (endpoint OD595 vs no drug) (fraction); higher = more growth
Method in brief: (§2)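 At 37 °C, bacteria in TSB, LB Lennox or CY were grown in 384-well plates from a starting OD595 of 0.01. OD595 was measured every 30 min for 14 h, with the first reading used as background. Fitness is the optical density at the switch to stationary phase as a fraction of the robust mean of no-drug control wells, capped at 1.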

[6] = system: S. pneumoniae D39V; assay: as above
Method in brief: as §2
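Wherever Bliss interaction score (quartile over a dose matrix) is given: first quartile when negative (synergy) and third quartile when positive (antagonism).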

Compound C[C@H]1c2cccc(O)c2C(=O)C2=C(O)[C@]3(O)C(=O)C(C(N)=O)=C(O)[C@@H](N(C)C)[C@@H]3[C@@H](O)[C@@H]21 [Doxycycline] + C[n+]1ccc(-c2cc[n+](C)cc2)cc1 [Paraquat] has a Bliss interaction score [1] of 0.0932, a Bliss interaction score [2] of 0.0382 and a Bliss interaction score [3] of -0.019. It also gave a Bliss interaction score [4] of 0.036, a fitness ([5]; first compound 0.02 µg/mL, partner 1.25 µg/mL) of 0.905 and a fitness ([5]; first compound 0.02 µg/mL, partner 2.5 µg/mL) of 0.86. For the same compound, the fitness ([5]; first compound 0.02 µg/mL, partner 5 µg/mL) was 0.885, the fitness ([5]; first compound 0.04 µg/mL, partner 1.25 µg/mL) was 0.828 and the fitness ([5]; first compound 0.04 µg/mL, partner 2.5 µg/mL) was 0.839. The fitness ([5]; first compound 0.04 µg/mL, partner 5 µg/mL) was 0.772, the fitness ([5]; first compound 0.08 µg/mL, partner 1.25 µg/mL) was 0.568 and the fitness ([6]; first compound 0.003875 µg/mL, partner 1.5 µg/mL, one replicate) was ≥ 1. The fitness ([6]; first compound 0.003875 µg/mL, partner 3 µg/mL, one replicate) was ≥ 1, the fitness ([6]; first compound 0.003875 µg/mL, partner 6 µg/mL, one replicate) was ≥ 1 and the fitness ([6]; first compound 0.00775 µg/mL, partner 1.5 µg/mL, one replicate) was ≥ 1. For the same compound, the fitness ([6]; first compound 0.00775 µg/mL, partner 3 µg/mL, one replicate) was 0.962, the fitness ([6]; first compound 0.00775 µg/mL, partner 6 µg/mL, one replicate) was 0.986 and the fitness ([6]; first compound 0.0155 µg/mL, partner 1.5 µg/mL) was 0.979. It also gave a fitness ([6]; first compound 0.0155 µg/mL, partner 3 µg/mL) of 0.975, a fitness ([6]; first compound 0.0155 µg/mL, partner 6 µg/mL) of 0.978 and a fitness ([6]; first compound 0.031 µg/mL, partner 1.5 µg/mL) of 0.923. The fitness ([6]; first compound 0.031 µg/mL, partner 3 µg/mL) was 0.877, the fitness ([6]; first compound 0.031 µg/mL, partner 6 µg/mL) was 0.898 and the fitness ([6]; first compound 0.062 µg/mL, partner 1.5 µg/mL) was 0.845. For the same compound, the fitness ([6]; first compound 0.062 µg/mL, partner 3 µg/mL) was 0.841 and the fitness ([6]; first compound 0.062 µg/mL, partner 6 µg/mL) was 0.806.
For O=C(O)c1cn(C2CC2)c2cc(N3CCNCC3)c(F)cc2c1=O [Ciprofloxacin] + CCC(C)C1C(=O)NC(=C)C(=O)NC(C(=O)NC(CSCC(C(=O)N1)NC(=O)/C(=C/C)/NC(=O)C(C(C)CC)N)C(=O)NC2C(SCC(NC(=O)CNC(=O)C3CCCN3C2=O)C(=O)NC(CCCCN)C(=O)NC4C(SCC(NC(=O)CNC(=O)C(NC(=O)C(NC(=O)C(NC(=O)CNC4=O)C)CC(C)C)CCSC)C(=O)NC(CC(=O)N)C(=O)NC(CCSC)C(=O)NC(CCCCN)C(=O)NC5C(SCC6C(=O)NC(C(=O)NC(CSC(C(C(=O)N6)NC(=O)C(NC5=O)C)C)C(=O)NC(CO)C(=O)NC(C(C)CC)C(=O)NC(CC7=CN=CN7)C(=O)NC(C(C)C)C(=O)NC(=C)C(=O)NC(CCCCN)C(=O)O)CC8=CN=CN8)C)C)C)CC(C)C [Nisin], the Bliss interaction score ([1]; main component drawn) was -0.0496, the Bliss interaction score ([2]; main component drawn) was -0.123 and the Bliss interaction score ([3]; main component drawn) was -0.059. It also gave a Bliss interaction score ([4]; main component drawn) of -0.0601, a fitness ([5]; first compound 0.0098 µg/mL, partner 0.5 µg/mL, main component drawn) of 0.838 and a fitness ([5]; first compound 0.0098 µg/mL, partner 1 µg/mL, main component drawn) of 0.814. The fitness ([5]; first compound 0.0098 µg/mL, partner 1.25 µg/mL, one replicate, main component drawn) was 0.919, the fitness ([5]; first compound 0.0098 µg/mL, partner 1.6 µg/mL, one replicate, main component drawn) was 0.726 and the fitness ([5]; first compound 0.0098 µg/mL, partner 2 µg/mL, main component drawn) was 0.568. It also gave a fitness ([5]; first compound 0.0098 µg/mL, partner 2.5 µg/mL, one replicate, main component drawn) of 0.577, a fitness ([5]; first compound 0.0098 µg/mL, partner 3.2 µg/mL, one replicate, main component drawn) of 0.0245 and a fitness ([5]; first compound 0.0098 µg/mL, partner 4 µg/mL, one replicate, main component drawn) of 0.368. It also gave a fitness ([5]; first compound 0.0098 µg/mL, partner 5 µg/mL, one replicate, main component drawn) of 0.0657, a fitness ([5]; first compound 0.0098 µg/mL, partner 6.4 µg/mL, one replicate, main component drawn) of 0.0606 and a fitness ([5]; first compound 0.0098 µg/mL, partner 8 µg/mL, one replicate, main component drawn) of 0.0414. It also gave a fitness ([5]; first compound 0.0098 µg/mL, partner 16 µg/mL, one replicate, main component drawn) of 0.0186, a fitness ([5]; first compound 0.0195 µg/mL, partner 0.5 µg/mL, main component drawn) of 0.702 and a fitness ([5]; first compound 0.0195 µg/mL, partner 1 µg/mL, main component drawn) of 0.591. It also gave a fitness ([5]; first compound 0.0195 µg/mL, partner 1.25 µg/mL, one replicate, main component drawn) of 0.795, a fitness ([5]; first compound 0.0195 µg/mL, partner 1.6 µg/mL, one replicate, main component drawn) of 0.575 and a fitness ([5]; first compound 0.0195 µg/mL, partner 2 µg/mL, main component drawn) of 0.427. For the same compound, the fitness ([5]; first compound 0.0195 µg/mL, partner 2.5 µg/mL, one replicate, main component drawn) was 0.381, the fitness ([5]; first compound 0.0195 µg/mL, partner 3.2 µg/mL, one replicate, main component drawn) was 0.0411 and the fitness ([5]; first compound 0.0195 µg/mL, partner 4 µg/mL, one replicate, main component drawn) was 0.223. For the same compound, the fitness ([5]; first compound 0.0195 µg/mL, partner 5 µg/mL, one replicate, main component drawn) was 0.035, the fitness ([5]; first compound 0.0195 µg/mL, partner 6.4 µg/mL, one replicate, main component drawn) was 0.0488 and the fitness ([5]; first compound 0.0195 µg/mL, partner 8 µg/mL, one replicate, main component drawn) was 0.0139. The fitness ([5]; first compound 0.0195 µg/mL, partner 16 µg/mL, one replicate, main component drawn) was 0.0115, the fitness ([5]; first compound 0.039 µg/mL, partner 0.5 µg/mL, main component drawn) was 0.276 and the fitness ([5]; first compound 0.039 µg/mL, partner 1 µg/mL, main component drawn) was 0.129. The fitness ([5]; first compound 0.039 µg/mL, partner 1.25 µg/mL, one replicate, main component drawn) was 0.256, the fitness ([5]; first compound 0.039 µg/mL, partner 1.6 µg/mL, one replicate, main component drawn) was 0.0309 and the fitness ([5]; first compound 0.039 µg/mL, partner 2 µg/mL, main component drawn) was 0.031. It also gave a fitness ([5]; first compound 0.039 µg/mL, partner 2.5 µg/mL, one replicate, main component drawn) of 0.0565, a fitness ([5]; first compound 0.039 µg/mL, partner 3.2 µg/mL, one replicate, main component drawn) of 0.0347 and a fitness ([5]; first compound 0.039 µg/mL, partner 4 µg/mL, one replicate, main component drawn) of 0.0357. The fitness ([5]; first compound 0.039 µg/mL, partner 5 µg/mL, one replicate, main component drawn) was 0.061, the fitness ([5]; first compound 0.039 µg/mL, partner 6.4 µg/mL, one replicate, main component drawn) was 0.0335 and the fitness ([5]; first compound 0.039 µg/mL, partner 8 µg/mL, one replicate, main component drawn) was 0.0446. The fitness ([5]; first compound 0.039 µg/mL, partner 16 µg/mL, one replicate, main component drawn) was 0.0305, the fitness ([6]; first compound 0.125 µg/mL, partner 0.4275 µg/mL, main component drawn) was 0.954 and the fitness ([6]; first compound 0.125 µg/mL, partner 0.855 µg/mL, main component drawn) was 0.825. For the same compound, the fitness ([6]; first compound 0.125 µg/mL, partner 1.6 µg/mL, main component drawn) was 0.0088, the fitness ([6]; first compound 0.125 µg/mL, partner 1.71 µg/mL, main component drawn) was 0.0552 and the fitness ([6]; first compound 0.125 µg/mL, partner 3.2 µg/mL, main component drawn) was 0.0108. It also gave a fitness ([6]; first compound 0.125 µg/mL, partner 6.4 µg/mL, main component drawn) of 0.005, a fitness ([6]; first compound 0.25 µg/mL, partner 0.4275 µg/mL, main component drawn) of 0.883 and a fitness ([6]; first compound 0.25 µg/mL, partner 0.855 µg/mL, main component drawn) of 0.398. For the same compound, the fitness ([6]; first compound 0.25 µg/mL, partner 1.6 µg/mL, one replicate, main component drawn) was 0, the fitness ([6]; first compound 0.25 µg/mL, partner 1.71 µg/mL, main component drawn) was 0.0414 and the fitness ([6]; first compound 0.25 µg/mL, partner 3.2 µg/mL, one replicate, main component drawn) was 0. It also gave a fitness ([6]; first compound 0.25 µg/mL, partner 6.4 µg/mL, one replicate, main component drawn) of 0, a fitness ([6]; first compound 0.5 µg/mL, partner 0.4275 µg/mL, main component drawn) of 0.614 and a fitness ([6]; first compound 0.5 µg/mL, partner 0.855 µg/mL, main component drawn) of 0.173. The fitness ([6]; first compound 0.5 µg/mL, partner 1.6 µg/mL, main component drawn) was 0.0116, the fitness ([6]; first compound 0.5 µg/mL, partner 1.71 µg/mL, main component drawn) was 0.0558 and the fitness ([6]; first compound 0.5 µg/mL, partner 3.2 µg/mL, main component drawn) was 0.043.
In the case of C[C@H]1c2cccc(O)c2C(=O)C2=C(O)[C@]3(O)C(=O)C(C(N)=O)=C(O)[C@@H](N(C)C)[C@@H]3[C@@H](O)[C@@H]21 [Doxycycline] + CN[C@@H]1[C@H](O[C@H]2[C@H](O[C@H]3[C@H](O)[C@@H](O)[C@H](N=C(N)N)[C@@H](O)[C@@H]3N=C(N)N)O[C@@H](C)[C@]2(O)C=O)O[C@@H](CO)[C@H](O)[C@H]1O [Streptomycin], the Bliss interaction score [1] is reported as 0.251, the Bliss interaction score [2] is reported as 0.0508 and the Bliss interaction score [3] is reported as -0.016. The Bliss interaction score [4] was -0.0673, the fitness ([5]; first compound 0.02 µg/mL, partner 2 µg/mL) was 0.902 and the fitness ([5]; first compound 0.02 µg/mL, partner 4 µg/mL) was 0.772. It also gave a fitness ([5]; first compound 0.04 µg/mL, partner 2 µg/mL) of 0.766, a fitness ([5]; first compound 0.04 µg/mL, partner 4 µg/mL) of 0.678 and a fitness ([5]; first compound 0.08 µg/mL, partner 2 µg/mL) of 0.497. For the same compound, the fitness ([6]; first compound 0.003875 µg/mL, partner 2 µg/mL, one replicate) was 0.955, the fitness ([6]; first compound 0.003875 µg/mL, partner 4 µg/mL, one replicate) was ≥ 1 and the fitness ([6]; first compound 0.003875 µg/mL, partner 8 µg/mL, one replicate) was 0.977. For the same compound, the fitness ([6]; first compound 0.00775 µg/mL, partner 2 µg/mL, one replicate) was 0.928, the fitness ([6]; first compound 0.00775 µg/mL, partner 4 µg/mL, one replicate) was 0.952 and the fitness ([6]; first compound 0.00775 µg/mL, partner 8 µg/mL, one replicate) was 0.937. For the same compound, the fitness ([6]; first compound 0.0155 µg/mL, partner 2 µg/mL) was 0.9, the fitness ([6]; first compound 0.0155 µg/mL, partner 4 µg/mL) was 0.895 and the fitness ([6]; first compound 0.0155 µg/mL, partner 8 µg/mL) was 0.891. The fitness ([6]; first compound 0.0155 µg/mL, partner 16 µg/mL, one replicate) was 0.741, the fitness ([6]; first compound 0.031 µg/mL, partner 2 µg/mL) was 0.866 and the fitness ([6]; first compound 0.031 µg/mL, partner 4 µg/mL) was 0.859. It also gave a fitness ([6]; first compound 0.031 µg/mL, partner 8 µg/mL) of 0.837, a fitness ([6]; first compound 0.031 µg/mL, partner 16 µg/mL, one replicate) of 0.671 and a fitness ([6]; first compound 0.062 µg/mL, partner 2 µg/mL) of 0.72. The fitness ([6]; first compound 0.062 µg/mL, partner 4 µg/mL) was 0.714, the fitness ([6]; first compound 0.062 µg/mL, partner 8 µg/mL) was 0.735 and the fitness ([6]; first compound 0.062 µg/mL, partner 16 µg/mL, one replicate) was 0.57.
